Results on 10 molecules are retold here after patent US11034679B2 (priority 2017, dated 2021).

Like-named read-outs stand apart in the source and are kept apart here.

In series [1] the target is T1, MOR (Homo sapiens, UniProt P35372). In words: cell-based. The note with it: for MOR potency relative to kurkinorin: cAMP assay, Table 1. Set-up: expressed in transfected cells; host or cells: CHO cells stably expressing MOR. Type of series: cell-based.
Target sequence in this assay (P35372 whole entry): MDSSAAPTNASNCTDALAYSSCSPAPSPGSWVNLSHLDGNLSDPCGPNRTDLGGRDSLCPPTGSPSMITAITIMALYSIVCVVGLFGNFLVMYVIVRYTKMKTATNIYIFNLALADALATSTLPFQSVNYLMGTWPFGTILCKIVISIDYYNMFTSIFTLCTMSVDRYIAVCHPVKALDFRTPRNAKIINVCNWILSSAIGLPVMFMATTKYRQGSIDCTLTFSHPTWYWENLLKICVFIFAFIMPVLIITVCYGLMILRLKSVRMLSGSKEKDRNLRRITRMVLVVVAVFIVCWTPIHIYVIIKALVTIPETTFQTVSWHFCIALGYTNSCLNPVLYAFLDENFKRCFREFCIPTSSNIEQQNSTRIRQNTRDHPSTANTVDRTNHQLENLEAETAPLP
For series [2], the target named is T1, MOR. Nature of the series: cell-based. Details: host or cells: CHO-K1 OPRM1 β-arrestin-2 cells. As to conditions: for Emax: read-out: % Efficacy (maximum efficacy based on DAMGO maximum stimulation).
Target sequence in this assay (P35372 whole entry): as above
Target sequence in this assay (P32121 whole entry partner): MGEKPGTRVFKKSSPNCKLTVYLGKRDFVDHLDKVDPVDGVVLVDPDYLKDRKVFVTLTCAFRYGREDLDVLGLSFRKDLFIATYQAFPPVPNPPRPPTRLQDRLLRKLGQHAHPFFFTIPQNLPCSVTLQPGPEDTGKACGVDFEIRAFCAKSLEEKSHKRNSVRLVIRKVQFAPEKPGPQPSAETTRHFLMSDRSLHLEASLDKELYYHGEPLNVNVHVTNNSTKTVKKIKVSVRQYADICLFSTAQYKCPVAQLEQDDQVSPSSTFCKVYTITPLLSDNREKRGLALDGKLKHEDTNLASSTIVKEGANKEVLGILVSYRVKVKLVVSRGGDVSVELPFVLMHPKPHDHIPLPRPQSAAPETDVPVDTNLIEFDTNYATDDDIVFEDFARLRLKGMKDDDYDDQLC
Series [3] deals with mice. In words: hot water tail-flick tolerance evaluation. It is filed as in vivo. As to conditions: daily i.p. for 9 days, 10 mg/kg morphine or 5 mg/kg compound 3.46, latency 30 min after dose.
The test system of series [4] is mice. Nature of the series: accelerating rotarod performance assay. As to conditions: preliminary data, compared to morphine.
[5] abbreviates: CHO cells expressing MOR, read-out: EC50 (inhibition of cAMP accumulation).

For `COC(=O)[C@@H]1C=C(OC(=O)c2ccc(C(N)=O)cc2)C(=O)[C@H]2[C@@]1(C)CC[C@H]1C(=O)O[C@H](c3ccoc3)C[C@]21C` [Entry 6], at MOR [1], the EC50 is 0.19 ± 0.03 nM and the “MOR potency relative to kurkinorin” value is listed as “almost an order of magnitude more potent than kurkinorin”. For the same molecule, at MOR [2], the “Bias Factor” value was 1.57, a half-maximal response (EC50) required 10 nM and the Emax was 119%.
`COC(=O)[C@@H]1C=C(OC(=O)c2cccc(CO)c2)C(=O)[C@H]2[C@@]1(C)CC[C@H]1C(=O)O[C@H](c3ccoc3)C[C@]21C` [Entry 4, Methyl (2S,4aR,6aR,7R,10aR,10bR)-2-(furan-3-yl)-9-((3-(hydroxymethyl)benzoyl)oxy)-6a,10b-dimethyl-4,10-dioxo-1,4,4a,5,6,6a,7,10,10a,10b-decahydro-2H-benzo[f]isochromene-7-carboxylate]: the melting point lay within 104 to 106 °C. Also, the EC50 at MOR [1] (setting [5]) came out at 2.42 ± 0.07 nM. Further, at MOR [2], the “Bias Factor” value is given as 0.87, it took 150 nM to reach a half-maximal effect (EC50) and the Emax was 75%.
Molecule `COC(=O)[C@@H]1C=C(OC(=O)c2ccc(CO)cc2)C(=O)[C@H]2[C@@]1(C)CC[C@H]1C(=O)O[C@H](c3ccoc3)C[C@]21C` [Entry 3, Methyl (2S,4aR,6aR,7R,10aR,10bR)-2-(furan-3-yl)-9-((4-(hydroxymethyl)benzoyl)oxy)-6a,10b-dimethyl-4,10-dioxo-1,4,4a,5,6,6a,7,10,10a,10b-decahydro-2H-benzo[f]isochromene-7-carboxylate] gave a melting point of 115 to 118 °C. Besides, on MOR [1] (setting [5]), the 50% effective concentration (EC50) stood at 0.03 ± 0.01 nM. Besides, the “MOR potency relative to kurkinorin” value on MOR [1] is “about two orders of magnitude more potent than kurkinorin”. Also, in the series on mice [3], the “antinociceptive effects (% maximal possible effect) on daily administration” value was “maintained antinociceptive efficacy from days 1-9”. On MOR [2], the “Bias Factor” value came to 0.14, the EC50 stood at 14 nM and the Emax is 81%. Also, in the series on mice [4], the “effects on motor coordination” value was “significantly less effects on motor coordination than morphine”.
On to `COC(=O)[C@@H]1C=C(OC(=O)c2cccc(C(N)=O)c2)C(=O)[C@H]2[C@@]1(C)CC[C@H]1C(=O)O[C@H](c3ccoc3)C[C@]21C`, for which the results for the EC50 at MOR [1] and at MOR [2] were above 10000 nM and above 25000 nM, respectively. Moreover, the Emax on MOR [1] (CHO) and on MOR [2] was 0% each time.
Turning to `COC(=O)[C@@H]1C=C(OC(=O)c2ccc3c(c2)CNC3=O)C(=O)[C@H]2[C@@]1(C)CC[C@H]1C(=O)O[C@H](c3ccoc3)C[C@]21C` [Entry 9, (2S,4aR,6aR,7R,10aR,10bR)-2-(furan-3-yl)-7-(methoxycarbonyl)-6a,10b-dimethyl-4,10-dioxo-1,4,4a,5,6,6a,7,10,10a,10b-decahydro-2H-benzo[f]isochromen-9-yl 1-oxoisoindoline-5-carboxylate], at MOR [1] (setting [5]), the concentration for a half-maximal effect (EC50) was determined as 3.2 ± 0.7 nM. Moreover, on MOR [2], the “Bias Factor” value turned out to be 0.81, the concentration giving a half-maximal response (EC50) came to 260 nM and the Emax is 88%.
Turning to `C[C@@H](NC(=O)[C@@H](N)Cc1ccc(O)cc1)C(=O)NCC(=O)N(C)[C@@H](Cc1ccccc1)C(=O)NCCO` [DAMGO, reference compound], the “Bias Factor” value on MOR [2] is recorded as 1.0.
In the case of `COCc1ccc(C(=O)OC2=C[C@@H](C(=O)OC)[C@]3(C)CC[C@H]4C(=O)O[C@H](c5ccoc5)C[C@]4(C)[C@H]3C2=O)cc1` [Entry 5, Methyl (2S,4aR,6aR,7R,10aR,10bR)-2-(furan-3-yl)-9-((4-(methoxymethyl)benzoyl)oxy)-6a,10b-dimethyl-4,10-dioxo-1,4,4a,5,6,6a,7,10,10a,10b-decahydro-2H-benzo[f]isochromene-7-carboxylate], the 50% effective concentration (EC50) at MOR [1] (setting [5]) was found to be 13 ± 3 nM. Further, on MOR [2], the “Bias Factor” value is recorded as 1.98, the concentration for a half-maximal effect (EC50) is 360 nM and the Emax is 74%.
Consider `COC(=O)[C@@H]1C=C(OC(=O)c2ccc3ccoc3c2)C(=O)[C@H]2[C@@]1(C)CC[C@H]1C(=O)O[C@H](c3ccoc3)C[C@]21C` [Entry 1, Methyl (2S,4aR,6aR,7R,10aR,10bR)-9-((benzofuran-6-carbonyl)oxy)-2-(furan-3-yl)-6a,10b-dimethyl-4,10-dioxo-1,4,4a,5,6,6a,7,10,10a,10b-decahydro-2H-benzo[f]isochromene-7-carboxylate], for which, on MOR [1] (setting [5]), the concentration for a half-maximal effect (EC50) came out at 1.5 ± 0.6 nM. Further, at MOR [2], the “Bias Factor” value is listed as 2.62, it took 40 nM to reach a half-maximal effect (EC50) and the Emax was 90%.
Consider `COC(=O)[C@@H]1C=C(OC(=O)c2ccc3occc3c2)C(=O)[C@H]2[C@@]1(C)CC[C@H]1C(=O)O[C@H](c3ccoc3)C[C@]21C` [Entry 2, Methyl (2S,4aR,6aR,7R,10aR,10bR)-9-((benzofuran-5-carbonyl)oxy)-2-(furan-3-yl)-6a,10b-dimethyl-4,10-dioxo-1,4,4a,5,6,6a,7,10,10a,10b-decahydro-2H-benzo[f]isochromene-7-carboxylate], for which the half-maximal effective concentration (EC50) on MOR [1] was found to be 9 ± 2 nM. In addition, on MOR [2], the “Bias Factor” value turned out to be 1.21, a half-maximal effect (EC50) was put at 490 nM and the Emax is 84%.
As for `COC(=O)[C@@H]1C=C(OC(=O)c2ccc3c(c2)C(=O)NC3)C(=O)[C@H]2[C@@]1(C)CC[C@H]1C(=O)O[C@H](c3ccoc3)C[C@]21C` [Entry 8, (2S,4aR,6aR,7R,10aR,10bR)-2-(furan-3-yl)-7-(methoxycarbonyl)-6a,10b-dimethyl-4,10-dioxo-1,4,4a,5,6,6a,7,10,10a,10b-decahydro-2H-benzo[f]isochromen-9-yl 3-oxoisoindoline-5-carboxylate], the half-maximal effective concentration (EC50) at MOR [1] (setting [5]) is 2.2 ± 0.2 nM. On MOR [2], the “Bias Factor” value is 0.65, the EC50 stood at 190 nM and the Emax was 76%.
